Source: patent US10130618B2, “Pharmaceutical combinations of dabigatran and proton pump inhibitors” (SANOVEL ILAC SANAYI VE TICARET ANONIM SIRKETI, priority 2014, dated 2018)

Key:
[1] = DSC analysis of 1:1 API mixtures (compatibility with Dabigatran etexilate mesylate); format: physicochemical; conditions: for DSC peak temperature of the mixture (peak shifting) / Compatibility by DSC: 1:1 mixture with Dabigatran etexilate mesylate; for DSC peak temperature of the mixture (peak shifting): 10° C./min, 30° C. to 300° C.; for Compatibility by DSC: characteristic peaks not determined; for Pharmaceutical incompatibility (discussion of DSC): with Dabigatran etexilate mesylate
Protocol: (§1) DSC Analysis: DSC scan of about 2 mg using an automatic thermal analyzer system performed accurately weighed of APIs (Dabigatran etexilate, Dabigatran etexilate mesylate, Esomeprazole, Dexlansoprazole) of 1:1 in ratio respectively. DSC scans performed with 10° C. per minute heat flow from 30° C. to 300° C. The peak shifting of active ingredients was determined by DSC analysis.
(§2) Method Log: • 1: Pan Type: Aluminum hermetic • 2: Equilibrate at 30.00° C. • 3: Ramp 10.00 ° C./min to 300.00° C. • 4: End of method
(§3) Results (Thermograms): • FIG. 1. Thermogram of Dabigatran etexilate • FIG. 2. Thermogram of Dabigatran etexilate mesylate • FIG. 3. Thermogram of Esomeprazole • FIG. 4. Thermogram of Dexlansoprazole • FIG. 5. Thermogram of Dabigatran etexilate: Esomeprazole • FIG. 6. Thermogram of Dabigatran etexilate mesylate: Esomeprazole • FIG. 7. Thermogram of Dabigatran etexilate: Dexlansoprazole • FIG. 8. Thermogram of Dabigatran etexilate mesylate: Dexlansoprazole
(§4) Discussion: The characteristic degradation and melting peaks of active ingredients were not determined. It indicates pharmaceutical incompatibility of esomeprazole and dexlansoprazole with Dabigatran etexilate and Dabigatran etexilate mesylate.

[2] = DSC analysis of 1:1 API mixtures (compatibility with Dabigatran etexilate); format: physicochemical; conditions: for DSC peak temperature of the mixture (peak shifting) / Compatibility by DSC: 1:1 mixture with Dabigatran etexilate; for DSC peak temperature of the mixture (peak shifting): 10° C./min, 30° C. to 300° C.; for Compatibility by DSC: characteristic peaks not determined; for Pharmaceutical incompatibility (discussion of DSC): with Dabigatran etexilate
Protocol: as §1, §2, §3, §4

DSC peak temperature of the mixture (peak shifting) [1] [°C]	Compatibility by DSC [1]	Pharmaceutical incompatibility (discussion of DSC) [1]	DSC peak temperature of the mixture (peak shifting) [2] [°C]	Compatibility by DSC [2]	Pharmaceutical incompatibility (discussion of DSC) [2]	SMILES
176	incompatible.	incompatibility	174	incompatible.	incompatibility	COc1ccc2nc([S@@+]([O-])Cc3ncc(C)c(OC)c3C)[nH]c2c1 [Esomeprazole, (S)-5-methoxy-2-[(4-methoxy-3,5-dimethylpyridin-2-yl)methylsulfinyl]-3H-benzoimidazole]
82	incompatible.	incompatibility	87	incompatible.	incompatibility	Cc1c(OCC(F)(F)F)ccnc1C[S@@+]([O-])c1nc2ccccc2[nH]1 [Dexlansoprazole, (+)-2-[(R)-{[3-methyl-4-(2,2,2-trifluoroethoxy)pyridin-2-yl]methyl}sulfinyl]-1H-benzimidazole]
